The values below come from patent EP0469084B1, “HEPATOSPECIFIC INSULIN ANALOGUES” (MOUNT SINAI SCHOOL OF MEDICINE OF THE CITY UNIVERSITY OF …, priority 1989, dated 1995).

The conditions of assay [1]: from U.S. Patent 4,992,417 and PCT/US88/02289; cited from earlier work.
Assay [2] concerns FAO cells. Nature of the assay: Inhibition of gluconeogenesis assay (glucose secretion by confluent hepatoma cell monolayers). The assay is classed as cell-based. The note with it: for potency in inhibiting gluconeogenesis relative to the natural hormone: ratio of concentration of insulin to analogue producing half-maximal inhibition of glucose production, FAO hepatoma cells. The source says: (§1) Although insulin analogues, in general, maintain some residual insulin activity, the potency of such analogues is usually only a fraction of that of natural insulins. The potency of human, bovine and porcine insulins in USP standards is about 25-26 IU (international units) per mg protein. Standard assay for measuring insulin potency include inter alia (1) insulin radioreceptorassays, in which the relative potency of an insulin is defined as the ratio of insulin to insulin analogue required to displace 50% of ¹²⁵I-insulin specifically bound to insulin receptors present on cell membranes, e.g. a rat liver plasma membrane fraction, isolated rat adipocytes, or isolated rat hepatocytes; (2) lipogenesis assays, performed e.g. with rat adipocytes, in which relative insulin potency is defined as the ratio of insulin to insulin analogue required to achieve 50% of the maximum conversion of [3-³H] glucose into organic-extractable material (i.e. lipids); (3) glucose oxidation assays in isolated fat cells in which the relative potency of the insulin analogue is defined as the ratio of insulin to insulin analogue to achieve 50% of the maximum conversion of glucose-1-[¹⁴C] into [¹⁴CO₂]; (4) insulin radioimmunoassays which can determine the immunogenicity of insulin analogues by measuring the effectiveness by which insulin or an insulin analogue competes with ¹²⁵I-insulin in binding to specific anti-insulin antibodies; (5) inhibition of gluconeogenesis performed on confluent monolayers of a well differentiated hepatoma cell line (FAO) in which inhibition of glucose secretion into the medium is determined as a function of the concentration of insulin or insulin analogue.
This assay was carried out on confluent monolayers of a well differentiated hepatoma cell line (Lauris et al. Endocrinology 118:2519-2524 (1986)) in which glucose production was monitored with a commercial glucose oxidase kit (Sigma kit no. 510-A, Sigma Technical Bulletin 510, 1983). Inhibition of glucose secretion into the medium was determined as a function of the concentration of insulin or insulin analogue, and the relative potency of the analogue was defined as the ratio of the concentration of insulin to analogue required to produce half-maximal inhibition of glucose production. The cell culture and glucose production was carried out as described by Lauris et al., supra.
The potency of the synthetic insulin in inhibiting gluconeogenesis is calculated to be about 90% relative to the natural hormone.

The subject of assay [3] is insulin receptors. Nature of the assay: Insulin receptor binding assay (inhibition of specific 125I-insulin binding, rat liver plasma membrane fraction). The note with it: concentration ratio of unlabelled insulin to analogue required to inhibit 50% of specific 125I-insulin binding; rat liver plasma membranes, 45 min at 24°C, pH 7.4. The protocol: Although insulin analogues, in general, maintain some residual insulin activity, the potency of such analogues is usually only a fraction of that of natural insulins. The potency of human, bovine and porcine insulins in USP standards is about 25-26 IU (international units) per mg protein. […]
Briefly, triplicate 0.2ml incubations contained ¹²⁵I-insulin, 3 x 10⁻¹⁰M, unlabelled insulin or [Trp¹⁴-A] insulin prepared as in Example 1, and plasma membranes (20-40 »g of protein) in 0.1 M sodium phosphate, pH 7.4, containing 0.6% fraction V bovine serum albumin. […] The filters were washed twice with the ice cold buffer, dried, and then radioactivity was counted in a scintillation counter using Filtron-X®. […]

The test system of assay [4] is rat adipocytes. Nature of the assay: Lipogenesis assay (conversion of [3-3H] glucose into lipids in isolated adipocytes). Particulars: for potency in lipogenesis compared to the natural hormone: concentration ratio of bovine insulin to analogue producing 50% of maximum stimulation of lipogenesis. The assay is classed as cell-based.
Text: as §1
In this Example the materials used and the analytical procedures followed are those found in Kitagawa et al., Biochemistry, 23: 1405-1413 (1984). ¹²⁵I-insulin for receptor binding studies and [3-³H] glucose for lipogenesis were obtained from DuPont NEN Research Products. Cellulose acetate membrane filters, 0.2 »m pore size, were products of Sartorius. Glass-fiber filters, Type GFC, were from Whatman. Collagenase, Type II crude, was obtained from Worthington. […]
These assays measured the ability of the insulin analogue as compared to bovine insulin to convert [3-³H] glucose into lipids.
Adipocytes were prepared by incubating epididymal and perirenal fat pads obtained from male rats weighing 200-300 g with 1.0 mg/ml collagenase for 60 min at 37°C, followed by filtration through gauze and then through fine-mesh silk. […] Samples were extracted with 10 ml of Soluscint-0® for 30 min at room temperature before counting the radioactivity in a scintillation counter. […] Zero and 100% stimulation of lipogenesis were defined as radioactivity observed in the absence and presence, respectively, of 9.1 x 10⁻¹⁰M insulin (5.5 ng/ml). […]

The conditions of assay [5]: from W. Danho et al., Chemical Abstracts 94: 47733x; cited from earlier work.
[6] abbreviates: compared with insulin, FAO cells.

For [10-Aspartic Acid-B] human insulin, the “potency relative to natural insulins” value in assay [1] is given as 4 to 5 times.
For [Trp¹⁴-A] insulin, in assay [2] (setting [6]), the “concentration of agonist producing half-maximal inhibition of gluconeogenesis” value is “approximately the same concentration of agonist” and the “maximum inhibition of gluconeogenesis” value is “same maximum inhibition of gluconeogenesis”. The “potency in inhibiting gluconeogenesis relative to the natural hormone” value in assay [2] came out at 90%. For the same substance, the “potency in inhibiting gluconeogenesis relative to the natural hormone” value in assay [2] (listed as [Trp ¹⁴-A] insulin) is recorded as “about 90%”. The “potency of that of the natural hormone (relative potency, receptor binding)” value in assay [3] is given as “about 60%”. Also, in assay [4] (compared with bovine insulin), the “concentration of agonist producing half-maximal stimulation of lipogenesis” value was “about twice the concentration of agonist” and the “maximum stimulation of lipogenesis” value is “same maximum stimulation of lipogenesis”. Moreover, the “potency in lipogenesis compared to the natural hormone” value in assay [4] is given as “about 60%”. For the same substance, in assay [4] (listed as synthetic insulin), the “potency in lipogenesis compared to the natural hormone” value is reported as “approximately 60%”.
For the substance porcine A14-phenylalanine insulin, the “biological activity compared with native insulin” value in assay [5] is “virtually the same biological activity as native insulin”.
